Laboratory results as given in patent publication US20190100498A1, “CRYSTALLINE FORM” (AstraZeneca AB, priority 2016, published 2019).

Test: accelerated degradation studies (chemical stability, purity by HPLC)
Assay type: physicochemical
Excerpt: Crystalline particles of Form S of the compound of formula (I) were obtained using the methods described in Example 5 above. Crystalline particles of Form A were also obtained, using the ethyl acetate-heptane crystallization system described in WO2010/071583. Samples of Form A and Form S were subject to accelerated degradation studies. Samples of each crystalline form were stored at varying combinations of temperature and relative humidity and analysed for purity by HPLC at 0, 14 and 28 days.

[1] = 60 °C, 30% relative humidity, Day 0
[2] = 60 °C, 30% relative humidity, Day 14
[3] = 60 °C, 30% relative humidity, Day 28
[4] = 60 °C, 75% relative humidity, Day 0
[5] = 60 °C, 75% relative humidity, Day 14
[6] = 60 °C, 75% relative humidity, Day 28
[7] = 70 °C, 11% relative humidity, Day 0
[8] = 70 °C, 11% relative humidity, Day 14
[9] = 70 °C, 11% relative humidity, Day 28
[10] = 70 °C, 75% relative humidity, Day 0
[11] = 70 °C, 75% relative humidity, Day 14
[12] = 70 °C, 75% relative humidity, Day 28
[13] = 80 °C, 30% relative humidity, Day 0
[14] = 80 °C, 30% relative humidity, Day 14
[15] = 80 °C, 30% relative humidity, Day 28

Structure (SMILES)	Purity by HPLC [1] [%]	Purity by HPLC [2] [%]	Purity by HPLC [3] [%]	Purity by HPLC [4] [%]	Purity by HPLC [5] [%]	Purity by HPLC [6] [%]	Purity by HPLC [7] [%]	Purity by HPLC [8] [%]	Purity by HPLC [9] [%]	Purity by HPLC [10] [%]	Purity by HPLC [11] [%]	Purity by HPLC [12] [%]	Purity by HPLC [13] [%]	Purity by HPLC [14] [%]	Purity by HPLC [15] [%]	degradation in accelerated degradation studies (under all the conditions that the samples were exposed to, Form S compared with Form A)
CNCCOc1ccccc1C1(Nc2nccn(-c3cc(C(=O)NC4CC4)cc(F)c3C)c2=O)CC1 [Form A, N-cyclopropyl-3-fluoro-4-methyl-5-[3-[[1-[2-[2-(methylamino)ethoxy]phenyl]cyclopropyl]amino]-2-oxo-pyrazin-1-yl]benzamide, reference compound]	99.43	99.41	99.39	99.43	99.20	99.21	99.43	99.33	99.33	99.43	98.78	98.76	99.43	99.40	99.36	
CNCCOc1ccccc1C1(Nc2nccn(-c3cc(C(=O)NC4CC4)cc(F)c3C)c2=O)CC1 [Form S, N-cyclopropyl-3-fluoro-4-methyl-5-[3-[[1-[2-[2-(methylamino)ethoxy]phenyl]cyclopropyl]amino]-2-oxo-pyrazin-1-yl]benzamide]	99.77	99.77	99.77	99.77	99.64	99.63	99.77	99.77	99.77	99.77	99.77	99.77	99.77	99.77	99.78	significantly less degradation than Form A
